SMILES strings stand for the structures.

The first assay addresses T1, human PAH with the R408W mutation (A375 R408W cells) (Homo sapiens, UniProt P00439, R408W).
T1 construct: expressed in transfected cells
T1 sequence (P00439 1-452 R408W): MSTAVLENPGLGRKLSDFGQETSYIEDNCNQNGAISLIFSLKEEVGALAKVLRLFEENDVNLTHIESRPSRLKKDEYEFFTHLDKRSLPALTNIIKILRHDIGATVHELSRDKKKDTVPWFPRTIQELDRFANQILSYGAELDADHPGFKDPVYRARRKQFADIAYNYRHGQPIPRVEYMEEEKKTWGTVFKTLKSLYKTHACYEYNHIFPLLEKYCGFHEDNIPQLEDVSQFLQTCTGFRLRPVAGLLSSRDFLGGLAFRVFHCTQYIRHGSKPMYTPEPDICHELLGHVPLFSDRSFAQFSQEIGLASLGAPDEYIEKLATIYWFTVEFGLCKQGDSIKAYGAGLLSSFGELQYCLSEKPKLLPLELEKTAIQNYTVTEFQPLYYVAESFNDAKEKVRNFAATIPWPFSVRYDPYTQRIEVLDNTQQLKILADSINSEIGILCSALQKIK
The assay is described as follows: Cell Based Phenylalanine Flux Assay. The following applies: A375 R408W cells; 24 hrs with compound, then 20 μM sepiapterin and 800 μM 13C9,15N-Phenylalanine for 4 hours; 13C-Tyrosine by LC-MS; average where tested multiple times. In a few lines:
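Phenylalanine-to-tyrosine flux is measured in A375 cells carrying stable human R408W PAH. After 24 h compound exposure, 13C9,15N-Phe (800 μM) with sepiapterin (20 μM) is supplied for 4 h and media 13C-Tyr is read by LC-MS; AC50s are binned.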
In general, AC50 refers to the midpoint of the concentration-response curve, whichever way the signal moves. Turning to `O=C(c1oc(-c2ccc(F)cn2)nc1C(F)F)N1CCc2[nH]cnc2[C@@H]1c1nc2cc(F)ccc2o1` [Example 417, (R)-(4-(difluoromethyl)-2-(5-fluoropyridin-2-yl)oxazol-5-yl)(4-(5-fluorobenzo[d]oxazol-2-yl)-6,7-dihydro-1H-imidazo[4,5-c]pyridin-5(4H)-yl)methanone], the half-maximal activity concentration (AC50) was no more than 500 nM. Still for that read-out and setting: the figure for `CC(C)(O)c1nc(Br)c(C(=O)N2CCc3[nH]cnc3[C@@H]2c2nc3c(F)cccc3o2)o1` [Example 251, (R)-(4-bromo-2-(2-hydroxypropan-2-yl)oxazol-5-yl)(4-(4-fluorobenzo[d]oxazol-2-yl)-6,7-dihydro-1H-imidazo[4,5-c]pyridin-5(4H)-yl)methanone] is 1000 to 5000 nM; for `Cc1ncoc1C(=O)N1CCc2[nH]cnc2[C@H]1c1nc2c(F)cccc2o1` [Example 599, (S)-(4-(4-fluorobenzo[d]oxazol-2-yl)-6,7-dihydro-1H-imidazo[4,5-c]pyridin-5(4H)-yl)(4-methyloxazol-5-yl)methanone] it is no more than 500 nM. Consider `O=C(c1oc(-c2ncccn2)nc1C(F)F)N1CCc2[nH]cnc2[C@H]1c1nc2cc(F)ccc2o1` [Example 661, (S)-(4-(difluoromethyl)-2-(pyrimidin-2-yl)oxazol-5-yl)(4-(5-fluorobenzo[d]oxazol-2-yl)-6,7-dihydro-1H-imidazo[4,5-c]pyridin-5(4H)-yl)methanone], for which the AC50 fell in the range of 1000 to 5000 nM.

Regarding `[2H]C([2H])([2H])OCc1nc(C(F)F)c(C(=O)N2CCc3[nH]cnc3[C@@H]2c2nc3cc(F)ccc3o2)o1` [Example 156, (R)-(4-(difluoromethyl)-2-((methoxy-d3)methyl)oxazol-5-yl)(4-(5-fluorobenzo[d]oxazol-2-yl)-1,4,6,7-tetrahydro-5H-imidazo[4,5-c]pyridin-5-yl)methanone], the AC50 lay within 1000 to 5000 nM. Turning to `Cn1nc(Br)nc1C(=O)N1CCc2[nH]cnc2[C@@H]1c1nc2cccc(F)c2o1` [Example 474, (R)-(3-bromo-1-methyl-1H-1,2,4-triazol-5-yl)(4-(7-fluorobenzo[d]oxazol-2-yl)-6,7-dihydro-1H-imidazo[4,5-c]pyridin-5(4H)-yl)methanone], the AC50 lay within 1000 to 5000 nM. For the compound `CN(C)CCc1cn2ncc(C(=O)N3CCc4[nH]cnc4[C@@H]3c3nc4cc(F)ccc4o3)c2cc1Cl` [Example 80, (R)-(5-chloro-6-(2-(dimethylamino)ethyl)pyrazolo[1,5-a]pyridin-3-yl)(4-(5-fluorobenzo[d]oxazol-2-yl)-6,7-dihydro-1H-imidazo[4,5-c]pyridin-5(4H)-yl)methanone], the half-maximal activity concentration (AC50) lay within 1000 to 5000 nM. Same read-out and setting: as for `O=C(c1cnco1)N1CCc2[nH]cnc2[C@@H]1c1nc2c(F)ccc(F)c2o1` [Example 484, (R)-(4-(4,7-difluorobenzo[d]oxazol-2-yl)-6,7-dihydro-1H-imidazo[4,5-c]pyridin-5(4H)-yl)(oxazol-5-yl)methanone], the figure is 1000 to 5000 nM. As for `O=C(c1cnn2cc(-c3ccccn3)ccc12)N1CCc2[nH]cnc2[C@H]1c1nc2c(F)cccc2o1` [Example 543, (S)-(4-(4-fluorobenzo[d]oxazol-2-yl)-6,7-dihydro-1H-imidazo[4,5-c]pyridin-5(4H)-yl)(6-(pyridin-2-yl)pyrazolo[1,5-a]pyridin-3-yl)methanone], the concentration at half-maximal activity (AC50) is no more than 500 nM. On the same count and under the same terms, the figure for `O=C(CCc1ncco1)N1CCc2[nH]cnc2[C@@H]1c1nc2cccc(F)c2o1` [Example 388, (R)-1-(4-(7-fluorobenzo[d]oxazol-2-yl)-6,7-dihydro-1H-imidazo[4,5-c]pyridin-5(4H)-yl)-3-(oxazol-2-yl)propan-1-one] is no less than 5000 nM. Same read-out and setting: as for `O=C(c1ocnc1C(F)F)N1CCc2[nH]cnc2[C@@H]1c1nc2cc(Cl)cc(F)c2o1` [Example 607, (R)-(4-(5-chloro-7-fluorobenzo[d]oxazol-2-yl)-6,7-dihydro-1H-imidazo[4,5-c]pyridin-5(4H)-yl)(4-(difluoromethyl)oxazol-5-yl)methanone], the figure is no more than 500 nM; as for `CC(C)(O)c1nc(C(F)F)c(C(=O)N2CCc3[nH]cnc3[C@H]2c2nc3cc(Br)cc(F)c3o2)o1` [Example 571, (S)-(4-(5-bromo-7-fluorobenzo[d]oxazol-2-yl)-6,7-dihydro-1H-imidazo[4,5-c]pyridin-5(4H)-yl)(4-(difluoromethyl)-2-(2-hydroxypropan-2-yl)oxazol-5-yl)methanone], no more than 500 nM. Regarding `Cc1nc(C(C)(C)C#N)oc1C(=O)N1CCc2[nH]cnc2[C@H]1c1nc2cc(F)ccc2o1` [Example 185, (S)-2-(5-(4-(5-fluorobenzo[d]oxazol-2-yl)-4,5,6,7-tetrahydro-1H-imidazo[4,5-c]pyridine-5-carbonyl)-4-methyloxazol-2-yl)-2-methylpropanenitrile], the AC50 was in the range of 500 to 1000 nM.

For the compound `Cn1nc(Cl)nc1C(=O)N1CCc2[nH]cnc2[C@@H]1c1nc2c(F)cccc2o1` [Example 278, (R)-(3-chloro-1-methyl-1H-1,2,4-triazol-5-yl)(4-(4-fluorobenzo[d]oxazol-2-yl)-6,7-dihydro-1H-imidazo[4,5-c]pyridin-5(4H)-yl)methanone], the AC50 lay within 1000 to 5000 nM.

For the compound `Cn1cncc1-c1nc(C(F)F)c(C(=O)N2CCc3[nH]cnc3[C@H]2c2nc3ccccc3o2)o1` [Example 764, (S)-(4-(benzo[d]oxazol-2-yl)-6,7-dihydro-1H-imidazo[4,5-c]pyridin-5(4H)-yl)(4-(difluoromethyl)-2-(1-methyl-1H-imidazol-5-yl)oxazol-5-yl)methanone], the half-maximal activity concentration (AC50) was no more than 500 nM. `Cn1cc(C(=O)N2CCc3[nH]cnc3[C@H]2c2nc3cc(F)ccc3o2)c(C(F)F)n1` [Example 95, (S)-(3-(difluoromethyl)-1-methyl-1H-pyrazol-4-yl)(4-(5-fluorobenzo[d]oxazol-2-yl)-6,7-dihydro-1H-imidazo[4,5-c]pyridin-5(4H)-yl)methanone]: the AC50 is 500 to 1000 nM. As to `O=C(c1nnc(-c2ccccn2)o1)N1Cc2[nH]cnc2[C@H]1c1nc2ccccc2o1` [Example 937, (S)-(4-(benzo[d]oxazol-2-yl)-4,6-dihydropyrrolo[3,4-d]imidazol-5(1H)-yl)(5-(pyridin-2-yl)-1,3,4-oxadiazol-2-yl)methanone], the AC50 was in the range of 1000 to 5000 nM. Still for that read-out and setting: the figure for `Cc1cccc2nc([C@@H]3c4nc[nH]c4CCN3C(=O)c3nnc(-c4cnn(C(F)F)c4)o3)oc12` [Example 872, (S)-(5-(1-(difluoromethyl)-1H-pyrazol-4-yl)-1,3,4-oxadiazol-2-yl)(4-(7-methylbenzo[d]oxazol-2-yl)-6,7-dihydro-1H-imidazo[4,5-c]pyridin-5(4H)-yl)methanone] is 500 to 1000 nM.

Regarding `O=C(c1ccnn1C(F)F)N1CCc2[nH]cnc2[C@H]1c1nc2cc(F)ccc2o1` [Example 93, (S)-(1-(difluoromethyl)-1H-pyrazol-5-yl)(4-(5-fluorobenzo[d]oxazol-2-yl)-6,7-dihydro-1H-imidazo[4,5-c]pyridin-5(4H)-yl)methanone], the AC50 fell in the range of 500 to 1000 nM.

The same assay, now with this note: A375 cells expressing R408W PAH; 24 hrs with compound, then 20 μM sepiapterin and 800 μM 13C9,15N-Phenylalanine for 4 hours; 13C-Tyrosine by LC-MS; average where tested multiple times.
Turning to `O=C(CCc1nccs1)N1CCc2[nH]cnc2C1c1nc2ccc(Br)cc2o1` (stereo not drawn), the half-maximal activity concentration (AC50) fell in the range of 1000 to 5000 nM.

In the case of `CNCCc1ccc2c(C(=O)N3CCc4[nH]cnc4C3c3nc4cc(F)ccc4o3)cnn2c1` (stereo not drawn), the AC50 is no less than 5000 nM. On the same count and under the same terms, as for `Cc1nc(C2(O)CC2)oc1C(=O)N1CCc2[nH]cnc2C1c1nc2cc(F)ccc2o1` (stereo not drawn), the figure is no less than 5000 nM; as for `O=C(c1ccn(CC(F)F)n1)N1CCc2[nH]cnc2C1c1nc2ccccc2o1` (stereo not drawn), 1000 to 5000 nM.

As to `O=C(c1nnc(-c2ncccc2F)o1)N1CCc2[nH]cnc2C1c1nc2cc(C(F)(F)F)ccc2o1` (stereo not drawn), the AC50 lay within 1000 to 5000 nM.

For the origin of these results see US20250171437A1 (Agios Pharmaceuticals,Inc., priority 2022, published 2025).
